“Also recorded” adds a separate entry of the source.
Columns and labels:
SEM cell line = assay: Flow based Annexin V apoptosis and cell death assay; parameters: species or system human; details: Annexin V kit
Description: Compound 1 was further analyzed for its effect on cell apoptosis and cell death using a flow based assay using Annexin V kit.

P12 xenograft = assay: Anti-leukemia activity in mouse model of human leukemia (bioluminescence imaging, mCherry cells in bone marrow); format: in vivo, mice; details: 10 mg/kg and 100 mg/kg
Experimental: (§1) Bioluminecence imaging (BLI) analysis was performed by treating a mouse model (8 mice) of human leukemia (P12 xenograft) with two different doses of Compound 1 (i.e., 10 and 100 mg/kilogram of body weight) using the formulation obtained in Example 2. P12 cells were transduced with a vector encoding for Luciferase and mCherry as a fluorescent marker. Treatment was started 5 days after inoculation of the cell line, and carried out by oral gavage for 18 days twice a day. Mice were imaged twice a week to obtain a quantification of the disease burden.

Rac = assay: Pull down assay of Rac activation with Western blot; format: cell-based, human; details: SEM cell line
Experimental: Further, a biochemical pull down assay using the SEM cell line was performed to confirm specific inhibition of Rac activation by Compound 1 as indicated by disruption of the interaction between Rac and GTPase. The assay initially required treatment of cells followed by pull down and analysis with Western blot. The cells were first starved in serum free media for 2 hours. They were then re-suspended in serum-containing medium. NSC23766 and Compound 1 were added at desired concentrations. Following incubation for the desired length of time, the cells were pelleted and lysed with Magnesium Lysis Buffer (Millipore Mg^2+ lysis/wash buffer).

[1] = Relative weight of mice during the efficacy study; format: in vivo; details: 10 mg/kg and 100 mg/kg, normalized to average weight before treatment
Experimental: as §1

[2] = system: mononuclear bone marrow cells from WT mice; assay: Colony forming unit assay (CFU assay) for toxicity; format: cell-based
Experimental: The formulation obtained in Example 2 was used for evaluating the toxicity of Compound 1 in a colony forming unit assay (CFU assay), which was performed by plating mononuclear bone marrow cells from WT mice in methylcellulose media supplemented with different doses of Compound 1, NSC23766, and DMSO. The number of colonies formed in each condition was scored 7 days after plating.

[3] = system: SEM, RS4,11, and P12 leukemia cell lines; assay: Inhibition of proliferation in three leukemia cell lines; format: cell-based; details: Homo sapiens; range over SEM, RS4,11 and P12 cell lines
Experimental: Compound 1 was assayed for inhibition of proliferation in three leukemia cell lines, i.e., (1) SEM, (2) RS4,11, and (3) P12 by […]. The cells for the proliferation assay were spun down and re-suspended. The cell suspension was then divided and Compound 1 was added in desired concentrations and subsequently plated. Following an incubation period, the […] (Promega CellTiter 96® Aqueous Non-Radioactive Cell Proliferation Assay) was added and allowed to incubate. The absorbance is subsequently measured at 490 nm using a plate reader.

[4] = system: sensitive leukemic cell lines; assay: Induction of apoptosis in leukemic cell lines
[5] = system: P12 cells with NRAS G12D mutation

| IC50 [3] [µM] | Structure (SMILES) | cell apoptosis and cell death (SEM cell line) | mCherry positive cells in the bone marrow (P12 xenograft; fold change to the vehicle group) | bioluminescence (disease burden) (P12 xenograft; oral gavage twice a day for 18 days) | total Rac levels (Rac) | Rac activation (Rac; pull down) | relative weight of the mice [1] | concentration up to which no toxicity toward clonogenic progenitor bone marrow cells was seen ([2]; colonies scored 7 days after plating) [µM] | concentration without toxicity relative to the IC50 ([2]; fold the IC50) [fold] | apoptosis [4] | PDE6D/ARL2/3-dependent trafficking of RAS [5] |
| --- | --- | --- | --- | --- | --- | --- | --- | --- | --- | --- | --- |
| 0.8 to 7 | O=C(CCc1nnc(CCc2c[nH]c3ccccc23)o1)N1CCN(c2ccc(F)cc2)CC1 [Compound 1, 1-[4-(4-fluorophenyl)piperazin-1-yl]-3-{5-[2-(1H-indol-3-yl)ethyl]-1,3,4-oxadiazol-2-yl}propan-1-one] | caused cells apoptosis and cell death in the SEM cell line in a dose-dependent manner | effectively inhibit proliferation | significantly reduced the bioluminescence | no significant effect on total Rac levels | significant reduction of Rac activation; also recorded: dose dependent reduction of Rac activation | relatively stable over the course of treatment | ~100 | > 100 |  |  |
|  | CCc1ccc(CN(C)C(=O)CCc2nnc(CCc3c[nH]c4ccccc34)o2)cc1 [Compound 5] |  |  |  |  |  |  |  |  | induced apoptosis | affected PDE6D/ARL2/3-dependent trafficking of RAS |

From patent publication US11685733B2, “Compounds for treating Rac-GTPase mediated disorder” (Children's Medical Center Corporation, priority 2018, dated 2023)
